SMILES strings stand for the structures.

The results in this text go back to BindingDB's records for doi:10.1016/j.ejmech.2018.12.027 (National Taiwan University, 2019).

The assay can be described thus: Inhibition of influenza A virus (A/WSN/1933(H1N1)) neuraminidase using MUNANA as fluorogenic substrate preincubated for 10 mins followed by substrate addition and measured after 15 mins by fluorometric assay.
The IC50 is the concentration at which inhibition is half-maximal. Low values mean higher potency, high ones lower potency. On to `CCC(CC)O[C@@H]1C=C([B-](F)(F)F)C[C@H](NC(=N)N)[C@H]1NC(C)=O`, for which inhibition was half-maximal at 20 nM (IC50). This lies in the double-digit nanomolar range.

In the case of `CCCCOS(=O)(=O)C1=C[C@@H](OC(CC)CC)[C@H](NC(C)=O)[C@@H](NC(=N)N)C1`, the IC50 came out at 3.3 nM.

Compound `CCC(CC)O[C@@H]1C=C(S(=O)(=O)CCc2ccncc2)C[C@H](NC(=N)N)[C@H]1NC(C)=O` had an IC50 of 9.8 nM.

As to `CCC(CC)O[C@@H]1C=C([B-](F)(F)F)C[C@H](N)[C@H]1NC(C)=O`, the IC50 came to 3400 nM.

As to `CCCCOS(=O)(=O)C1=C[C@@H](OC(CC)CC)[C@H](NC(C)=O)[C@@H](N)C1`, 27 nM corresponded to half-maximal inhibition (IC50).

The compound `CCC(CC)O[C@@H]1C=C(S(=O)(=O)O)C[C@H](NC(=N)N)[C@H]1NC(C)=O` yielded an IC50 of 1.3 nM.

Compound `CCC(CC)O[C@@H]1C=C(S(=O)(=O)O)C[C@H](N)[C@H]1NC(C)=O` had an IC50 of 1.8 nM.

`CCC(CC)O[C@@H]1C=C(S(C)(=O)=O)C[C@H](N)[C@H]1NC(C)=O` came in with an IC50 of 180 nM.

For `CCC(CC)O[C@@H]1C=C(B(O)O)C[C@H](NC(=N)N)[C@H]1NC(C)=O`, the IC50 was 28 nM.

Compound `CCC(CC)O[C@@H]1C=C(S(=O)(=O)CCc2ccncc2)C[C@H](N)[C@H]1NC(C)=O` had an IC50 of 330 nM.
